One compound from patent publication EP1270568A1, “1-methyl-4-(3-ethoxy-9h-thioxanthene-ylidene)-piperidine and its use as 5-HT2B and/or H1 antagonist” (Biofrontera Pharmaceuticals AG, priority 2001, dated 2003) can be followed below.

SMILES strings stand for the structures.

The target in one test is T1, 5-HT2B receptor (Rattus norvegicus, UniProt P30994).
T1 construct: Strips of longitudinal muscle were obtained from the stomach fundus of male Sprague Dawley rats; from tissue; host or cells: rat stomach fundus longitudinal muscle strips (male Sprague Dawley)
In words: 5-HT2B receptor tissue based functional assay in rat stomach fundus longitudinal muscle. It is filed as cell-based. The conditions noted are these: dextral shift of agonist concentration-response curve, result in words only. How it is done: The following describes an in vitro functional assay characterizing 5-HT receptors (the putative 5-HT2B) in rat stomach fundus longitudinal muscle (Baxter et al., Brit. J. Pharmacol. 1994, 112, 323-331).
Strips of longitudinal muscle were obtained from the stomach fundus of male Sprague Dawley rats. The mucosa was removed and the strips were suspended with a resting tension of 1 g in oxygenated (95% O2 /5% CO2) Tyrode solution at 37°C. The composition of the Tyrode solution was as follows (mM): NaCl 136.9; KCl 2.7; NaH2PO4 0.4; MgCl2 1.0; glucose 5.6; NaHCO3 11.9; CaCl2 1.8. […]
Effects of drugs were monitored by tension transducers and recorded on polygraph recorders. Tissue response was measured as changes in isometric tension (g). The mean potency (EC50) and maximum response were evaluated by standard iterative curve fitting procedures.
Effects of antagonists were determined by measuring dextral shifts to the agonist concentration-response curve after equilibration of the antagonists for at least 1 h. Concentration ratios were measured at half maximal response levels and single concentration antagonist affinities were determined by the equation: KB =(antagonist concentration)/(concentration ratio) [formula]

Test [1] addresses T2, human H1 receptor (Homo sapiens, UniProt P35367). In words: Human histamine H1 receptor functional assay ([3H]-inositol phosphate formation). Format: cell-based. The arrangement: expressed in transfected cells. The conditions noted are these: transiently transfected HEK-293 cells, histamine-stimulated [3H]-inositol phosphate formation; result in words only. The method, then:
For the measurement of the [^3H]-inositol phosphate formation transiently transfected HEK-293 cells were seeded in 24 well plates and labeled to equilibrium with myo-[2-^3H]-inositol (3 ìCi/ml) for an additional 24 hours in growth medium. The medium was aspirated and cells were washed once with 500 µl HBS-buffer (130 mM NaCl, 900 µM NaH2PO4, 800 µM MgSO4, 5.4 mM KCl, 1.8 mM CaCl2, 25 mM Glucose in 20 mM HEPES pH 7.4). Two min after applying 20 mM Li^+ the cells were stimulated by addition of histamine in HBS-buffer. The incubation was stopped by aspiration off the culture medium and the addition of cold 10 mM formic acid. [^3H]inositol phosphates were isolated by anion exchange chromatography (see Seuwen et al., 1988, EMBO J., 7, 161-168). The pKB value was calculated according to the formula: pKB = log (A'/A - 1) - log [B], where A'/A is the ratio of the agonist concentrations (EC50 in the presence / EC50 in the absence of antagonist) and [B] the concentration of antagonist.

Test [2] concerns the target T3, human 5-HT2B receptor (Homo sapiens, UniProt P41595). As to the kind of experiment: 5-HT2A, 5-HT2B, 5-HT2C receptor binding methods (counter screen for selectivity). The arrangement: expressed in transfected cells; host or cells: HEK293 cells. Particulars: HEK293 cells, [3H]-5HT approximately 0.4 nM, 120 min at 4°C; result in words only. The method, then:
5-HT2A receptors were labelled with [^3H]ketanserin in human cortex, in HEK293 cells expressing a cloned human 5-HT2A receptor and in HEK293 cells expressing the rat 5-HT2A receptor. For competition binding studies the ligand concentration was approximately 0.1 nM. For saturation binding studies concentrations of radioligand ranged from 0.01 nM to 2.0 nM. Assays were conducted in 0.5 ml of assay buffer (50 mM Tris-HCl, 4 mM calcium chloride, 0.1 % by weight ascorbic acid) (pH 7.4 at 4°C). Non-specifc binding was defined with […] unlabelled ketanserin. After a 60 min incubation at 32°C, membranes were harvested onto filters treated with 0.1 % by weight of polyethylenimine and the bound radioactivity was determined.
Human 5-HT2B receptors were labelled in HEK293 cells as described above. except that the radioligand was [^3H]-5HT and that the assay buffer contained pargyline in a concentration of 10 mM and 0.1 % by weight of ascorbic acid. […]
Competition radioligand binding data was analyzed using a four parameter logistic equation and iterative curve-fitting techniques to obtain estimates of the IC50 and Hill slope. Kd values, determined from saturation binding studies were then used to calculate inhibition dissociation constants (Ki).

Test [3] addresses T2, human H1 receptor. In words: Cloned human H1, H2, H3 (and H4) receptor binding assay ([3H]-mepyramine for H1). The arrangement: expressed in transfected cells; host or cells: COS-7 cells, transiently transfected; cell homogenates. The conditions noted are these: COS-7 cell homogenates, 1 nM [3H]-mepyramine, 30 min at 25°C; result in words only. The method, then: COS-7 cells were transiently transfected with an expression plasmid pCineohH1, pCineohH2, pCineohH3 and pCineohH4 encoding the human Histamine H1, H2 H3 or H4 receptor, respectively. Transfected cells were harvested after 48 h, homogenized in ice-cold 50 mM Na2/potassium phosphate buffer (pH 7.4) and used for radioligand binding studies. Cell homogenates (40 - 50 µg of protein) were incubated for 30 min at 25°C in 50 mM Na2/potassium phosphate buffer (pH 7.4) in 400 µl with the various concentrations of either [^3H]-mepyramine, [^3H]-thiotidine, [^3H]-R-α-Methylhistamine, and [^3H]-pyramilamine for cells expressing recombinant human H1, H2, H3 and H4 receptors, respectively. The nonspecific binding was defined in the presence of 1 µM mianserin. In displacement studies, cell homogenated were incubated either with 1 nM [^3H]-mepyramine, 15 nM [^3H]-thiotidine, 0.5 nM [^3H]-R-α-Methylhistamine, or 15 nM [^3H]-pyramilamine and increasing concentrations of competing ligands. The incubations were stopped by rapid dilution with 3 ml of ice-cold 50 mM Na2/potassium phosphate buffer (pH 7.4). The bound radioactivity was seperated by filatration through Whatman GF/C filters that had been treated with 0.3 % polyethyleneimine. Filters were washed twice in 3 ml of buffer and radioactivity retained on the filters was measured by liquid scinitllation counting. […]

The target in test [4] is T3, human 5-HT2B receptor. In words: Cloned human 5-HT2B receptor binding assay ([3H]-5HT). The conditions noted are these: HEK 293 cells transiently transfected with human 5-HT2B receptor, [3H]5-HT 4 to 5 nM, 37°C 30 min; result in words only. The arrangement: expressed in transfected cells; host or cells: HEK 293 cells, transiently transfected; membrane preparation. The method, then:
The following describes an in vitro binding assay utilizing cloned 5-HT2B receptors radiolabelled with [^3H]-5HT.
HEK 293 cells transiently transfected with an expression plasmid pXMD1-hu2B encoding the human 5-HT2B receptor (see Schmuck et al., FEBS Lett., 1994, 342, 85-90) were used as described previously (Schmuck et al., Eur. J. Pharmacol., 1996, 8, 959-967). Two days after transfection cells were harvested, pelleted at 500g for 5 min at 4°C, gently resuspended in ice-cold buffer1 (50 mM TRIS pH 7.7, 4 mM CaCl2) and homogenized using a Polytron PT 1200 tissue homogenizer (position 6 for 30 s). Cells were pelleted at 50,000g. 4°C for 10 min, washed with buffer1 and pelleted again. The final pellet was resuspended in incubation buffer (50 mM TRIS pH 7.7, 4 mM CaCl2, 10 µM pargyline and 0.1 % by weight ascorbic acid). The binding assay consisted of 300 µl of membrane suspension (protein concentration = 0.3 to 0.5 mg/ml), 150 µl of competing drug and 50 µl of [^3H]5-HT at a final concentration of 4 to 5 nM. The mixture was incubated at 37°C for 30 min and the assay terminated by rapid filtration and two washing steps with 5 ml of cold 20 mM Tris-HCl pH = 7.5, and 154 mM NaCl over Whatman GFB filters. Filters were counted by liquid scintillation. Non-specific binding was determined in the presence of an excess of 5-HT (100 µM). […] Results are expressed as pKi values. […]

T2 sequence (P35367 whole entry): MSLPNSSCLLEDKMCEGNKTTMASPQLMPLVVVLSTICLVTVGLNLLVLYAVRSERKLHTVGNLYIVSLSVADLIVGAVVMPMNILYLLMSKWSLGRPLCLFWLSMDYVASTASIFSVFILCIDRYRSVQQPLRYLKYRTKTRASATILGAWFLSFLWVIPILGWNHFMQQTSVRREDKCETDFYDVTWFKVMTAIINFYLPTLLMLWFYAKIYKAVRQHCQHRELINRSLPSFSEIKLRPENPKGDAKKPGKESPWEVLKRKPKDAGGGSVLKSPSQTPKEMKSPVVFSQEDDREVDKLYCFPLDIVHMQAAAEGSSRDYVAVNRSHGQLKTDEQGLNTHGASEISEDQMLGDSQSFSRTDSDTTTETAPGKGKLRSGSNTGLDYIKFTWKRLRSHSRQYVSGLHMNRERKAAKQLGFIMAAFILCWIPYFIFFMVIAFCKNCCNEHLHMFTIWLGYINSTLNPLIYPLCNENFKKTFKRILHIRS
T3 sequence (P41595 whole entry): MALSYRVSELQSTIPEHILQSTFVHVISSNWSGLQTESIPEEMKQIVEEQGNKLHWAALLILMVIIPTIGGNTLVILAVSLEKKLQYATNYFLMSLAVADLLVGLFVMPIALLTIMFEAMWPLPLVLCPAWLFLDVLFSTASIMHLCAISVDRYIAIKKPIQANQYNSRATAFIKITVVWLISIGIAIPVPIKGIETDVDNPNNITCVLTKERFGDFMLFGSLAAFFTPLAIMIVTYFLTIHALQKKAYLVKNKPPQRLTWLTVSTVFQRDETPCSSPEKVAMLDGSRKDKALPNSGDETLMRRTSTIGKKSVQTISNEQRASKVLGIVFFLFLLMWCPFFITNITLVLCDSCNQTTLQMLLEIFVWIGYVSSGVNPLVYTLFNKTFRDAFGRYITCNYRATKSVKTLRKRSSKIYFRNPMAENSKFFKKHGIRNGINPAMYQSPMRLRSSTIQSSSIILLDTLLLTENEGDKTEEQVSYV
T1 sequence (P30994 whole entry): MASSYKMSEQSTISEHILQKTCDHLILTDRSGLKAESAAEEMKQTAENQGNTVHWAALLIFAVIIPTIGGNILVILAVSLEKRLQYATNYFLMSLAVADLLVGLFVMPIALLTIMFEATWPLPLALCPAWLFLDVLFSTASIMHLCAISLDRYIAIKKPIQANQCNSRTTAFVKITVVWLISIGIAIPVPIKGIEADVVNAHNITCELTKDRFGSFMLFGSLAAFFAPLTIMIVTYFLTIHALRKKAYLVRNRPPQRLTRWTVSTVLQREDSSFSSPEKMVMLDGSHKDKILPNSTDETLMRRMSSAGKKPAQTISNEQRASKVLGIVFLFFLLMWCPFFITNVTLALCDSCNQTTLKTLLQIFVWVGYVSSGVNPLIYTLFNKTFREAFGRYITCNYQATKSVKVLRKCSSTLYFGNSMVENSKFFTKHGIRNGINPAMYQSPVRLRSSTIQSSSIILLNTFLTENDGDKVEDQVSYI

Consider `CCOc1ccc2c(c1)Sc1ccccc1C2=C1CCN(C)CC1` [1-methyl-4-(3-ethoxy-9H-thioxanthene-9-ylidene)-piperidine], for which the “antagonist at the 5-HT2B receptor” value on 5-HT2B receptor is recorded as “found to be an antagonist at the 5-HT2B receptor”. At human H1 receptor [1], the “antagonist at the human H1 receptor” value is recorded as “found to be an antagonist at the human H1 receptor”. In addition, the “affinity for the 5-HT2B receptor” value on human 5-HT2B receptor [2] and at human 5-HT2B receptor [4] was “found to have affinity for the 5-HT2B receptor” each time. For the same compound, the “affinity for the human H1 receptor” value at human H1 receptor [3] is “found to have affinity for the human H1 receptor”.
